Experimental data published in patent US4873265A, “Anti-infective methods and compositions” (priority 1988, dated 1989).
In brackets after ≈: the same amount, converted by molar mass. Like-named read-outs stand apart in the source and are kept apart here.

Experiments:
Type in all cases: cell-based
C. albicans = test: In vitro antimycotic activity, MIC, C. albicans; conditions: for MIC: Candida albicans
Procedure: (§1) A laboratory propagated strain of C. albicans, originally isolated from an infected skin lesion of a patient, was grown in Mueller-Hinton broth for 18 hours at 35° C. Plates were then seeded with the broth culture and allowed to air-dry at room temperature (22° C.) for about 10-15 minutes. Forty lambda of the 2% aqueous solutions or of serial half-step dilutions in water were then pipetted onto the seeded Mueller-Hinton agar plates. The plates were then incubated for 24 hours at 35° C. and zones of inhibition were then recorded. The Minimum Inhibitory Concentration (MIC) was the lowest concentration of the test material which produced a zone of inhibition against the organism. The MIC for each test material (antihistamine) is listed in the enclosed table. Table 2 lists the MIC's against C. albicans while Table 3 lists the MIC's against in vitro-grown spores of the human pathogen T. mentagrophytes. This strain was isolated from a human infection and was grown on Sabourand-Dextrose agar for 2 weeks. The spores were collected by flooding the agar plates after the 2 week growth period with a 0.01% solution of Tween-80 (sorbitol ester) and then filtering the Tween solution through gauze mesh to collect the suspension of spores. Sabourand-Dextrose agar plates are then seeded with the spore suspension. After air-drying, 40 lambda of each test solution is pipetted onto the plates and the plates left to incubate for 4 days at 22° C.

[1] = system: Spores of T. Mentagrophytes; test: In vitro antimycotic activity, MIC, spores of T. mentagrophytes; conditions: for MIC: Trichophyton mentagrophytes, 96 h; for activity against T. mentagrophytes: in vitro, in words
Procedure: as §1

Micrococcus luteous = test: In vitro zone of inhibition screening, MIC, Micrococcus luteous; conditions: aqueous solution, seeded Mueller-Hinton agar, 24 hours at 35° C.; for MIC: Micrococcus, read-out: Minimum Inhibitory Concentration, ML
Procedure: (§2) The 2% solutions listed above were diluted further with sterile water, using serial half-step dilutions. Forty lambda of each were then pipetted onto seeded Mueller-Hinton agar plates. The agar plates were then incubated for 24 hours at 35° C. and zones of inhibition were then recorded. The Minimum Inhibitory Concentration (MIC) was the lowest concentration of the test material which produced a zone of inhibition against the organism.
(§3) Stock cutaneous strains of each organism were grown in Mueller-Hinton broth for 18 hours at 35° C. Plates were seeded with the 18 hour broth culture, allowed to air dry at room temperature (about 10 minutes) and then used for determination of zones of inhibition as outlined above.

[2] = system: Corenybacterium minutissimum; test: In vitro zone of inhibition screening, MIC, Corenybacterium minutissimum
Procedure: as §2, §3

Cutaneous Bacteria = test: In vitro zone of inhibition screening, overall (cutaneous bacteria); conditions: for Rank Order: highest inhibition (rank 1) to lowest (rank 5); for minimum inhibitory concentrations as low as: in vitro antibacterial testing, lowest MIC
Procedure: as §2, §3

Escherichia coli = test: In vitro zone of inhibition screening, MIC, Escherichia coli; conditions: for MIC: Escherichia coli
Procedure: as §2, §3

Staphylococcus aureus = test: In vitro zone of inhibition screening, MIC, Staphylococcus aureus; conditions: aqueous solution, seeded Mueller-Hinton agar, 24 hours at 35° C.; for MIC: Staphylococcus aureus, read-out: Minimum Inhibitory Concentration, SA
Procedure: as §2, §3

Pseudomonas aeroginosa = test: In vitro zone of inhibition screening, MIC, Pseudomonas aeroginosa; conditions: for MIC: Pseudomonas
Procedure: as §2, §3

[3] = aqueous solution, Mueller-Hinton agar, 24 hours at 35° C., read-out: MIC, C. albicans
[4] = aqueous solution, Sabourand-Dextrose agar, 4 days at 22° C., read-out: MIC, spores of T. Mentagrophytes
[5] = aqueous solution, seeded Mueller-Hinton agar, 24 hours at 35° C., read-out: Minimum Inhibitory Concentration, CM
[6] = aqueous solution, seeded Mueller-Hinton agar, 24 hours at 35° C., read-out: Minimum Inhibitory Concentration, EC
[7] = aqueous solution, seeded Mueller-Hinton agar, 24 hours at 35° C., read-out: Minimum Inhibitory Concentration, PA
[8] = aqueous solution, Sabourand-Dextrose agar, 4 days at 22° C.
[9] = aqueous solution, Mueller-Hinton agar, 24 hours at 35° C.
[10] = aqueous solution, seeded Mueller-Hinton agar, 24 hours at 35° C.

MIC (C. albicans; [3]) | MIC [1, 4] | MIC, spores of T. Mentagrophytes [1, 8] | MIC, C. albicans (C. albicans; [9]) | SMILES | MIC (Micrococcus luteous) | MIC [2, 5] | Rank Order (Cutaneous Bacteria) | minimum inhibitory concentrations as low as (Cutaneous Bacteria) | MIC (Escherichia coli; [6]) | MIC (Staphylococcus aureus) | MIC (Pseudomonas aeroginosa; [7]) | activity against T. mentagrophytes [1] | other results
20000 µg/mL (≈ 62.6 mM) | 20000 µg/mL (≈ 62.6 mM) | – | – | CN(C)CCC(c1ccc(Br)cc1)c1ccccn1 (stereo not shown) [Brompheniramine, brompheniramine] | 5000 µg/mL (≈ 15.7 mM) | 3000 µg/mL (≈ 9.4 mM) | 2 | 0.5-1% | 5000 µg/mL (≈ 15.7 mM) | 10000 µg/mL (≈ 31.3 mM) | 10000 µg/mL (≈ 31.3 mM) | – | –
20000 µg/mL (≈ 72.8 mM) | – | No inhibition | – | CN(C)CCC(c1ccc(Cl)cc1)c1ccccn1 (stereo not shown) [Chlorpheniramine, chlorpheniramine] | 5000 µg/mL (≈ 18.2 mM) | 5000 µg/mL (≈ 18.2 mM) | 2 | – | 5000 µg/mL (≈ 18.2 mM) | 10000 µg/mL (≈ 36.4 mM) | 10000 µg/mL (≈ 36.4 mM) | ineffective | –
– | – | – | – | CN(C)CCOC(c1ccccc1)c1ccccc1 [Diphenhydramine, diphenhydramine] | – | – | 1 | 0.25% | – | – | – | – | MIC (C. albicans; 24 h, read-out: MIC, C. albicans, aqueous solution, Mueller-Hinton agar, 24 hours at 35° C.): 10000 µg/mL (≈ 39.2 mM); MIC ([1]; read-out: MIC, spores of T. Mentagrophytes, aqueous solution, Sabourand-Dextrose agar, 4 days at 22° C.): 10000 µg/mL (≈ 39.2 mM); Minimum Inhibitory Concentration, ML (Micrococcus luteous): 2.5 mg/mL; MIC ([2]; 24 h, read-out: Minimum Inhibitory Concentration, CM, aqueous solution, seeded Mueller-Hinton agar, 24 hours at 35° C.): 2500 µg/mL (≈ 9.79 mM); MIC (Escherichia coli; 24 h, read-out: Minimum Inhibitory Concentration, EC, aqueous solution, seeded Mueller-Hinton agar, 24 hours at 35° C.): 2500 µg/mL (≈ 9.79 mM); Minimum Inhibitory Concentration, SA (Staphylococcus aureus): 2.5 mg/mL; MIC (Pseudomonas aeroginosa; 24 h, read-out: Minimum Inhibitory Concentration, PA, aqueous solution, seeded Mueller-Hinton agar, 24 hours at 35° C.): 5000 µg/mL (≈ 19.6 mM)
– | – | No inhibition | No inhibition | CN(C)CCOC(C)(c1ccccc1)c1ccccn1 (stereo not shown) [Doxylamine] | – | – | 5 | – | – | – | – | – | –
– | 20000 µg/mL (≈ 70.1 mM) | – | No inhibition | COc1ccc(CN(CCN(C)C)c2ccccn2)cc1 [Pyrilamine] | – | 10000 µg/mL (≈ 35 mM) | 4 | – | 10000 µg/mL (≈ 35 mM) | – | – | showed activity | –
20000 µg/mL (≈ 78.3 mM) | 20000 µg/mL (≈ 78.3 mM) | – | – | CN(C)CCN(Cc1ccccc1)c1ccccn1 [Tripelennamine, tripelennamine] | 10000 µg/mL (≈ 39.2 mM) | 5000 µg/mL (≈ 19.6 mM) | 3 | 0.5-1% | 5000 µg/mL (≈ 19.6 mM) | 10000 µg/mL (≈ 39.2 mM) | 10000 µg/mL (≈ 39.2 mM) | – | –
20000 µg/mL (≈ 71.8 mM) | – | No inhibition | – | Cc1ccc(/C(=C\CN2CCCC2)c2ccccn2)cc1 [Triprolidine, triprolidine] | 10000 µg/mL (≈ 35.9 mM) | 5000 µg/mL (≈ 18 mM) | 3 | 0.5-1% | 5000 µg/mL (≈ 18 mM) | 10000 µg/mL (≈ 35.9 mM) | 10000 µg/mL (≈ 35.9 mM) | ineffective | –

SMILES | MIC (C. albicans; [3]) | MIC [1, 4] | MIC, spores of T. Mentagrophytes [1, 8] | MIC, C. albicans (C. albicans; [9]) | MIC (Micrococcus luteous) | MIC [2, 5] | Rank Order (Cutaneous Bacteria) | minimum inhibitory concentrations as low as (Cutaneous Bacteria) | MIC (Escherichia coli; [6]) | MIC (Staphylococcus aureus) | MIC (Pseudomonas aeroginosa; [7]) | activity against T. mentagrophytes [1] | other results
CN(C)CCOC(c1ccccc1)c1ccccc1 [Dimenhydrinate, dimenhydrinate] | – | – | 20000 µg/mL | 20000 µg/mL (≈ 78.3 mM) | – | – | 3 | 0.5% | – | – | – | – | Minimum Inhibitory Concentration, ML (Micrococcus luteous): 10.0 mg/mL; Minimum Inhibitory Concentration, CM [2, 10]: 5.0 mg/mL; Minimum Inhibitory Concentration, EC (Escherichia coli; [10]): 5.0 mg/mL; Minimum Inhibitory Concentration, SA (Staphylococcus aureus): 10.0 mg/mL; Minimum Inhibitory Concentration, PA (Pseudomonas aeroginosa; [10]): 10.0 mg/mL
